# Test results reported in ChEMBL document CHEMBL3431459, “Roche carnitine palmitoyltransferase modulator screening data (supplementary data associated with the publication CHEMBL2216752)”.
# Assays:
# [1] = SUPPLEMENTARY: Lyophilisation Solubility Assay (LYSA); format: physicochemical; conditions: read-out: Kinetic_solubility
# [2] = biological target: T1, Carnitine O-palmitoyltransferase 1, liver isoform (Rattus norvegicus, UniProt P32198); experiment: (§1) SUPPLEMENTARY: Inhibition of Carnitine palmitoyltransferase 1, liver isoform
# T1 sequence (P32198 whole entry): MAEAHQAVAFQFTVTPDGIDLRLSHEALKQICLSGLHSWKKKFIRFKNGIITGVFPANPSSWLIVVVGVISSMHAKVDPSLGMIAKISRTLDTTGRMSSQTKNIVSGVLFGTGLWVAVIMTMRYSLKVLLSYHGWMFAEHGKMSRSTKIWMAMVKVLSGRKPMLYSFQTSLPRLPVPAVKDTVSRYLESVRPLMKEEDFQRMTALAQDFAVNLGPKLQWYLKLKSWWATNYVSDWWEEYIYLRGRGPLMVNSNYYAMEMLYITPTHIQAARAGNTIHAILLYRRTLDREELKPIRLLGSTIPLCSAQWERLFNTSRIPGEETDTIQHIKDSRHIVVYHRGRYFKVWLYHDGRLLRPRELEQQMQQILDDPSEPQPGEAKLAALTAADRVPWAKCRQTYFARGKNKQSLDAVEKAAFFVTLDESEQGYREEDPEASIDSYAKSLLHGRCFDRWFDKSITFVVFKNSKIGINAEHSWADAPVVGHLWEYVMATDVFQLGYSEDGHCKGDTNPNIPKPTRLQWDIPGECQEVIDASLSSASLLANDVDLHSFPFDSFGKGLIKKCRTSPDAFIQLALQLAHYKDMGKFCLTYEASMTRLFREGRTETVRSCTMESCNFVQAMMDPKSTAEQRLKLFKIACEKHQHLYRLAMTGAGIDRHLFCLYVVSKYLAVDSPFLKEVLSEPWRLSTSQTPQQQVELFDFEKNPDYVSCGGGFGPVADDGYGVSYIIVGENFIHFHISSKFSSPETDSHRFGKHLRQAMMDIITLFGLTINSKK
# [3] = biological target: T2, Carnitine O-palmitoyltransferase 1, liver isoform (Homo sapiens, UniProt P50416); experiment: as §1
# T2 sequence (P50416 whole entry): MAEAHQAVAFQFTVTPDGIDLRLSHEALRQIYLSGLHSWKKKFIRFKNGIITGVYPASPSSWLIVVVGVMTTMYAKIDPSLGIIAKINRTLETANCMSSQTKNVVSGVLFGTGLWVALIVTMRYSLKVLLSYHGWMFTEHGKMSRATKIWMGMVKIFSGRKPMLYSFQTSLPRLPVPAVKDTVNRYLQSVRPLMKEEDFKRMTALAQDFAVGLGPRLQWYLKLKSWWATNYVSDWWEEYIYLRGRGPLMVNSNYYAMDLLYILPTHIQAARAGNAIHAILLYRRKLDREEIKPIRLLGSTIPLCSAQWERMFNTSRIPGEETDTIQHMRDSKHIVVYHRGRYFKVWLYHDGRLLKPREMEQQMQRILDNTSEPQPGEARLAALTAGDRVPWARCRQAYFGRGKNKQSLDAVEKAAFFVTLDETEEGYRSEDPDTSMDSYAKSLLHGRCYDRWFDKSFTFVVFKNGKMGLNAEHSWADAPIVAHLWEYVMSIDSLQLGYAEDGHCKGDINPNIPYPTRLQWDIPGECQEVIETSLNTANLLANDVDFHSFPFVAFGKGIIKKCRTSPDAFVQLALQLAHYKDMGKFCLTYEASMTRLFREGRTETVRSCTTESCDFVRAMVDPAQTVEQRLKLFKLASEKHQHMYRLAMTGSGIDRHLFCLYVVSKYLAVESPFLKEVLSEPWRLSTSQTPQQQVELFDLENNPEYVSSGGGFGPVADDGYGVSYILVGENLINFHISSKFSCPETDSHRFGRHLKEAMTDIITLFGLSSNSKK
# [4] = biological target: T3, Carnitine O-palmitoyltransferase 2, mitochondrial (Homo sapiens, UniProt P23786); experiment: (§2) SUPPLEMENTARY: Inhibition of Carnitine palmitoyltransferase 2
# T3 sequence (P23786 whole entry): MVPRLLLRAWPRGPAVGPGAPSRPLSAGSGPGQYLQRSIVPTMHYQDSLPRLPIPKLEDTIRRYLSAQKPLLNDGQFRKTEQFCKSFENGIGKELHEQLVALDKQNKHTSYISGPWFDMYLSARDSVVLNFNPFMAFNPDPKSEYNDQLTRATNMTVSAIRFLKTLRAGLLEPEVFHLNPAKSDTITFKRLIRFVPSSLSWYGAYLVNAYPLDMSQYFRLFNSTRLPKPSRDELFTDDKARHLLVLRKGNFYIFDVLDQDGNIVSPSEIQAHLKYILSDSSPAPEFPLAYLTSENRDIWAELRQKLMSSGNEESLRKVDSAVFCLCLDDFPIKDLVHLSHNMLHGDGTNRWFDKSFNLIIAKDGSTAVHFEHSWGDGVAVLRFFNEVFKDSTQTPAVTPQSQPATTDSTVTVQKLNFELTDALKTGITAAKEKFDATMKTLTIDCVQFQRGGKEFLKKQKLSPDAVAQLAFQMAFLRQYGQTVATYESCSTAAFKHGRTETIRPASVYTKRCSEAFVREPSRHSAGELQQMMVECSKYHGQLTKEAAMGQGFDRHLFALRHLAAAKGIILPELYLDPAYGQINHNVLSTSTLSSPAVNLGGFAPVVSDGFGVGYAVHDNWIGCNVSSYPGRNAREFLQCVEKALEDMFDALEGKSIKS
# [5] = SUPPLEMENTARY: Lipophilicity (log D) Determination by high-throughput shake-flask; format: physicochemical; conditions: octanol/water
# [6] = SUPPLEMENTARY: PAMPA permeability assay; format: physicochemical; conditions: read-out: Permeability
# [7] = biological target: T4, Carnitine O-palmitoyltransferase 1, muscle isoform (Homo sapiens, UniProt Q92523); experiment: SUPPLEMENTARY: Inhibition of Carnitine palmitoyltransferase 1, muscle isoform; parameters: species or system Muscle tissue
# T4 sequence (Q92523 whole entry): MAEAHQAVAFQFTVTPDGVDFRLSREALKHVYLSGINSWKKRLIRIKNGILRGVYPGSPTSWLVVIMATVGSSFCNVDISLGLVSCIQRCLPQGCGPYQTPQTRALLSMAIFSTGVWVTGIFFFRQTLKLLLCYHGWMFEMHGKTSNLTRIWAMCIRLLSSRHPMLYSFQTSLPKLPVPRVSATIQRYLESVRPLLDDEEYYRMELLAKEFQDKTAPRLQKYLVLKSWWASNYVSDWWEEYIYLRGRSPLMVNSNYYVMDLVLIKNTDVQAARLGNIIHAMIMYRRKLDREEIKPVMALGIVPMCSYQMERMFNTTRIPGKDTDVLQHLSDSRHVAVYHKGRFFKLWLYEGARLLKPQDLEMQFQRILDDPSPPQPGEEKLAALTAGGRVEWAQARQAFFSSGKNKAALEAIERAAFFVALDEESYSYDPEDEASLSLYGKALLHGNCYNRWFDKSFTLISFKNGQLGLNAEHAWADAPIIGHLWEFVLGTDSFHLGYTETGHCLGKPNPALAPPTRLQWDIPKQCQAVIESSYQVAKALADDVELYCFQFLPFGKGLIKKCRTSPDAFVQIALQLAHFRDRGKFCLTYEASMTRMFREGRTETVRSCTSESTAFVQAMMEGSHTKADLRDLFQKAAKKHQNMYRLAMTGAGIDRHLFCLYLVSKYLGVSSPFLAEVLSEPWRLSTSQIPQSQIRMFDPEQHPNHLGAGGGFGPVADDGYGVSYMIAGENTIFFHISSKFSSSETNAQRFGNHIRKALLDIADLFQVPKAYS
# [8] = biological target: T5, Carnitine O-palmitoyltransferase 2, mitochondrial (Rattus norvegicus, UniProt P18886); experiment: as §2
# T5 sequence (P18886 whole entry): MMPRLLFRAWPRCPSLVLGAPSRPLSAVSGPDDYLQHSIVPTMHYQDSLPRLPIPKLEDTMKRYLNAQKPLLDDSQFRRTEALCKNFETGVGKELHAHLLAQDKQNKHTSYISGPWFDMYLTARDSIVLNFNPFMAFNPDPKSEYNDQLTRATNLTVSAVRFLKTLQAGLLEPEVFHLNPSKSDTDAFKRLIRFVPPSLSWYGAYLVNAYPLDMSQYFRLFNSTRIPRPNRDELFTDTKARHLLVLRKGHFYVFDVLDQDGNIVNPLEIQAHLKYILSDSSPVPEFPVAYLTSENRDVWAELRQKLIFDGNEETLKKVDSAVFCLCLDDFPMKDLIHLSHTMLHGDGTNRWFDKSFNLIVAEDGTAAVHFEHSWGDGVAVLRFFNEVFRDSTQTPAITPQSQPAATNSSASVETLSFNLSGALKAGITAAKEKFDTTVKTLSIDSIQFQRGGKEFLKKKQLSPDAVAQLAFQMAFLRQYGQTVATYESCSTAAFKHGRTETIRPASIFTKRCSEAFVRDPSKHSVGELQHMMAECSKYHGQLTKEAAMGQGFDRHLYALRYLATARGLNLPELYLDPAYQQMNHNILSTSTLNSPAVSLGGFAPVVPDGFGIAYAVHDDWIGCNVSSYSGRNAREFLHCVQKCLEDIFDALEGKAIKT
structure (smiles),measurement,setting,value
O=C(COc1ccccc1)N1CCCCC1c1cc(-c2ccccc2)n[nH]1 (centres undefined),solubility kinetic,[1],7 µg/mL
same,IC50,[2],375 nM
same,IC50,[3],159 nM
same,IC50,[4],60.6 µM
same,logD,[5],3.63
same,Papp,[6],0.53 ×10⁻⁶ cm/s
same,IC50,[7],> 100 µM
O=C(COc1ccccc1)N1CCCC[C@@H]1c1nc(-c2cccc(O)c2)no1,solubility kinetic,[1],7 µg/mL
same,IC50,[2],97.9 nM
same,IC50,[3],36.4 nM
same,IC50,[4],> 100 µM
same,logD,[5],3.24
same,Papp,[6],0.65 ×10⁻⁶ cm/s
same,IC50,[7],> 100 µM
COc1ccc(Cl)cc1S(=O)(=O)N1CCCCc2ccc(C(=O)Nc3ccc(C(=O)O)cc3)cc21,solubility kinetic,[1],211 µg/mL
same,IC50,[2],181 nM
same,IC50,[3],289 nM
same,IC50,[4],17.6 µM
same,logD,[5],1.5
same,Papp,[6],2.9 ×10⁻⁶ cm/s
same,IC50,[7],14.5 µM
O=C(O)c1cccc(-c2nc([C@H]3CCCCN3C(=O)COc3ccccc3)cs2)c1,solubility kinetic,[1],> 511 µg/mL
same,IC50,[2],529 nM
same,IC50,[8],> 100 µM
same,IC50,[4],23 µM
same,logD,[5],0.92
same,Papp,[6],2.35 ×10⁻⁶ cm/s
same,IC50,[7],95.9 µM
CS(=O)(=O)c1ccc(-c2csc([C@H]3CCCCN3C(=O)COc3ccccc3)n2)cc1,solubility kinetic,[1],1 µg/mL
same,IC50,[2],327 nM
same,IC50,[8],> 100 µM
same,IC50,[4],1.86 µM
same,logD,[5],> 3
same,Papp,[6],2.11 ×10⁻⁶ cm/s
same,IC50,[7],6.12 µM
N#Cc1ccc(-c2csc([C@H]3CCCCN3C(=O)COc3ccccc3)n2)cc1,solubility kinetic,[1],< 1 µg/mL
same,IC50,[2],245 nM
same,IC50,[8],> 100 µM
same,IC50,[4],41.6 µM
same,logD,[5],> 3
same,Papp,[6],1.95 ×10⁻⁶ cm/s
same,IC50,[7],> 100 µM
O=C(COc1ccccc1)N1CCCC[C@@H]1c1nc(-c2ccc(Cl)nc2)cs1,solubility kinetic,[1],1 µg/mL
same,IC50,[2],305 nM
same,IC50,[8],> 100 µM
same,IC50,[4],62.1 µM
same,logD,[5],> 3
same,Papp,[6],1.25 ×10⁻⁶ cm/s
same,IC50,[7],> 100 µM
CC(=O)Nc1ccc(-c2nc([C@H]3CCCCN3C(=O)COc3ccccc3)cs2)cc1,solubility kinetic,[1],1 µg/mL
same,IC50,[2],179 nM
same,IC50,[8],> 100 µM
same,IC50,[4],> 100 µM
same,logD,[5],3.72
same,Papp,[6],1.23 ×10⁻⁶ cm/s
same,IC50,[7],> 100 µM
O=C(COc1ccccc1)N1CCCC[C@@H]1c1csc(-c2ccc(C(F)(F)F)nc2)n1,solubility kinetic,[1],< 1 µg/mL
same,IC50,[2],985 nM
same,IC50,[8],> 100 µM
same,IC50,[4],> 100 µM
same,logD,[5],> 3
same,Papp,[6],1.31 ×10⁻⁶ cm/s
same,IC50,[7],> 100 µM
Cc1ccc(-c2nc([C@H]3CCCCN3C(=O)COc3ccccc3)cs2)cn1,solubility kinetic,[1],37 µg/mL
same,IC50,[2],60.5 nM
same,IC50,[8],88.3 µM
same,IC50,[4],24.3 µM
same,logD,[5],> 3
same,Papp,[6],2.07 ×10⁻⁶ cm/s
same,IC50,[7],36 µM
COc1ccc(-c2nc([C@H]3CCCCN3C(=O)COc3ccccc3)cs2)cn1,solubility kinetic,[1],2 µg/mL
same,IC50,[2],108 nM
same,IC50,[8],> 100 µM
same,IC50,[4],58.9 µM
same,logD,[5],> 3
same,Papp,[6],0.3 ×10⁻⁶ cm/s
same,IC50,[7],> 100 µM
O=C(COc1ccccc1)N1CCCC[C@@H]1c1csc(-c2ccccn2)n1,solubility kinetic,[1],18 µg/mL
same,IC50,[2],108 nM
same,IC50,[8],> 100 µM
same,IC50,[4],> 100 µM
same,logD,[5],> 3
same,Papp,[6],4.83 ×10⁻⁶ cm/s
same,IC50,[7],> 100 µM
